Reference: patent publication US20250333394A1, “Tiparp Inhibitor Compounds” (AbbVie Inc., priority 2024, published 2025)

How the values were obtained:
TIPARP GST-(TEV) = TIPARP GST-(TEV) (Homo sapiens (Human), UniProt Q7Z3E1); assay: TR-FRET binding assay, TIPARP
Summary of the method: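 N-terminal GST-TEV-tagged human TIPARP with protein/probe mix in 50 mM Tris-HCl pH 8.0, 5 mM MgCl2, 5 µM ZnCl2, 1 mM DTT, 0.15% BSA, 0.01% Triton X-100, plus 1 nM Tb-anti-GST antibody. Compounds at 30 µM to 0.5 nM final, 3-fold steps. TR-FRET ratio read after 2 h at ambient temperature.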

DLD-1 parent cells = assay: CellTiter-Glo DLD-1 parent cell assay; format: cell-based; details: Homo sapiens, 144 h, 6 days, read-out: DLD-1 CTG EC50
Summary of the method: (§1)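 DLD-1 parent (500 cells/well) and DLD-1 BRCA2 (−/−) (1200 cells/well) cells in RPMI 1640 with 10% FBS exposed to compounds at 30 μM to 0.5 nM (3-fold dilutions) for 6 days at 37° C. Viability read by CellTiter-Glo luminescence on day 7.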

DLD-1 BRCA2 (−/−) cells = assay: CellTiter-Glo DLD-1 BRCA2 (−/−) cell assay for PARP1/2 inhibition; format: cell-based; details: Homo sapiens, 144 h, 6 days, read-out: DLD-1 BRCA2 (−/−) CTG EC50
Summary of the method: as §1

MC-38 (Ker) tumors = assay: MC-38 (Ker) syngeneic model efficacy; format: in vivo, mouse; details: PO once daily up to 21 days, C57BL/6 mice
Procedure: The murine cell line MC-38 derived from C57BL6 murine colon adenocarcinoma cells was obtained from Kerafast (Boston, MA, USA). A suspension of 2.5×10^5 cells in culture medium mixed with Matrigel® (Corning Life Sciences, Lowell, MA, USA; 1:1, volume:volume) was injected subcutaneously in the right hind flank of female C57BL/6 mice to generate tumor formation. Treatment started when the size of the flank tumors was approximately 120 mm^3. Vehicle and four different doses of Example 1 were administered once daily to each of eight mice at each dose level for up to 21 days. Each administration consisted of a single 0.2 mL oral (PO) dose in a vehicle formulation (10% ethanol, 30% PEG300, and 60% PHOSAL® 50 PG).

Sequence of TIPARP GST-(TEV) (Q7Z3E1 441-657): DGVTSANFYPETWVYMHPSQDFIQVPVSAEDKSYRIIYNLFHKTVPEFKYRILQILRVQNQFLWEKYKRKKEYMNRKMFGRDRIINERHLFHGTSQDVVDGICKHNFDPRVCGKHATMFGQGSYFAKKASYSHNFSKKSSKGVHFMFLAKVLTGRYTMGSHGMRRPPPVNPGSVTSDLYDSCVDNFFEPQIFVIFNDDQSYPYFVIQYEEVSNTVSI

**Q.** What does the source list for `C[C@@H]1CN(c2ncc(C(F)(F)F)cn2)CCN1C(=O)[C@H]1C[C@@H](c2c[nH]c(=O)c(C(F)(F)F)c2)C1` [Example 1, 5-[(1S,3s)-3-{(2R)-2-methyl-4-[5-(trifluoromethyl)pyrimidin-2-yl]piperazine-1-carbonyl}cyclobutyl]-3-(trifluoromethyl)pyridin-2(1H)-one]?
**A.** IC50 (TIPARP GST-(TEV); TR-FRET, Probe 1, 2 hours incubation): 0.0024 µM; PARP1/TIPARP IC50 Ratio (TIPARP GST-(TEV); ratio of PARP1 GST IC50 to TIPARP GST-(TEV) IC50): 1140; EC50 (DLD-1 parent cells): > 30 µM; EC50 (DLD-1 BRCA2 (−/−) cells): 18.5 µM; maximum tumor growth inhibition (TGIMax) (MC-38 (Ker) tumors; Dose A): 46%; maximum tumor growth inhibition (TGIMax) (MC-38 (Ker) tumors; Dose B): 77%; maximum tumor growth inhibition (TGIMax) (MC-38 (Ker) tumors; Dose C): 98%; maximum tumor growth inhibition (TGIMax) (MC-38 (Ker) tumors; Dose D): 99%
